Experimental data as given in paper PMC7549094 (Journal of Medicinal Chemistry, 2020).
≈ marks a conversion by molar mass, not a printed value.

Legend:
hr EGFR = hr EGFR (Homo sapiens, UniProt P00533); assay: receptor profile (Table S4); format: biochemical
hr CCKa = target: T1, hr CCKa (Homo sapiens, UniProt P32238); assay: receptor profile (Table S4); format: binding
T1 sequence (P32238 1-428): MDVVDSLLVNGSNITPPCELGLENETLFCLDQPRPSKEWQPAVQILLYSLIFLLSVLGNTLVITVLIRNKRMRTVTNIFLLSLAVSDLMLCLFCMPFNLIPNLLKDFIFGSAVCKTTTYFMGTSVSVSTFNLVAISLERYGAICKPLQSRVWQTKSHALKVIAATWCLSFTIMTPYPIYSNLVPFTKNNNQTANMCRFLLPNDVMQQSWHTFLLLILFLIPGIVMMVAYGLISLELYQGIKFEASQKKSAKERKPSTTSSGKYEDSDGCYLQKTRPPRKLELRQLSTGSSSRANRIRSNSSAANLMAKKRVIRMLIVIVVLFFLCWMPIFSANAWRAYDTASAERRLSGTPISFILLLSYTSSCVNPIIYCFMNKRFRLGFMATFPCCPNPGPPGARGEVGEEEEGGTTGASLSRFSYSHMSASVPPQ

hr D1 antag = hr D1 antag (Homo sapiens, UniProt P21728); assay: receptor profile (Table S4); format: biochemical
hr D1 antag, sequence (P21728 whole entry): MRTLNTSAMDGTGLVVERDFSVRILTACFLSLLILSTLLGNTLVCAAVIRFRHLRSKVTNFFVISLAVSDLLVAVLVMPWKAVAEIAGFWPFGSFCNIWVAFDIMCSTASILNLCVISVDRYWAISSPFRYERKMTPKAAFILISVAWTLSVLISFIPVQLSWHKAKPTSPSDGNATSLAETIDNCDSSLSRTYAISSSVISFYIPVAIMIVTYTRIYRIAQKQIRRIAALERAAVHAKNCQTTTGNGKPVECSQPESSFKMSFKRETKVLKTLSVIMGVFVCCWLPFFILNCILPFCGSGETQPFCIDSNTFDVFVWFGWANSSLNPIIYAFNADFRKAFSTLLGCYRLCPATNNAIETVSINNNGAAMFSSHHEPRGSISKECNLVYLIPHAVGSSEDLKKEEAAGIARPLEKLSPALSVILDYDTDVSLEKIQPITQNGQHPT

BSEP = BSEP (Homo sapiens, UniProt O95342); assay: receptor profile (Table S4), first BSEP line
BSEP, sequence (O95342 whole entry): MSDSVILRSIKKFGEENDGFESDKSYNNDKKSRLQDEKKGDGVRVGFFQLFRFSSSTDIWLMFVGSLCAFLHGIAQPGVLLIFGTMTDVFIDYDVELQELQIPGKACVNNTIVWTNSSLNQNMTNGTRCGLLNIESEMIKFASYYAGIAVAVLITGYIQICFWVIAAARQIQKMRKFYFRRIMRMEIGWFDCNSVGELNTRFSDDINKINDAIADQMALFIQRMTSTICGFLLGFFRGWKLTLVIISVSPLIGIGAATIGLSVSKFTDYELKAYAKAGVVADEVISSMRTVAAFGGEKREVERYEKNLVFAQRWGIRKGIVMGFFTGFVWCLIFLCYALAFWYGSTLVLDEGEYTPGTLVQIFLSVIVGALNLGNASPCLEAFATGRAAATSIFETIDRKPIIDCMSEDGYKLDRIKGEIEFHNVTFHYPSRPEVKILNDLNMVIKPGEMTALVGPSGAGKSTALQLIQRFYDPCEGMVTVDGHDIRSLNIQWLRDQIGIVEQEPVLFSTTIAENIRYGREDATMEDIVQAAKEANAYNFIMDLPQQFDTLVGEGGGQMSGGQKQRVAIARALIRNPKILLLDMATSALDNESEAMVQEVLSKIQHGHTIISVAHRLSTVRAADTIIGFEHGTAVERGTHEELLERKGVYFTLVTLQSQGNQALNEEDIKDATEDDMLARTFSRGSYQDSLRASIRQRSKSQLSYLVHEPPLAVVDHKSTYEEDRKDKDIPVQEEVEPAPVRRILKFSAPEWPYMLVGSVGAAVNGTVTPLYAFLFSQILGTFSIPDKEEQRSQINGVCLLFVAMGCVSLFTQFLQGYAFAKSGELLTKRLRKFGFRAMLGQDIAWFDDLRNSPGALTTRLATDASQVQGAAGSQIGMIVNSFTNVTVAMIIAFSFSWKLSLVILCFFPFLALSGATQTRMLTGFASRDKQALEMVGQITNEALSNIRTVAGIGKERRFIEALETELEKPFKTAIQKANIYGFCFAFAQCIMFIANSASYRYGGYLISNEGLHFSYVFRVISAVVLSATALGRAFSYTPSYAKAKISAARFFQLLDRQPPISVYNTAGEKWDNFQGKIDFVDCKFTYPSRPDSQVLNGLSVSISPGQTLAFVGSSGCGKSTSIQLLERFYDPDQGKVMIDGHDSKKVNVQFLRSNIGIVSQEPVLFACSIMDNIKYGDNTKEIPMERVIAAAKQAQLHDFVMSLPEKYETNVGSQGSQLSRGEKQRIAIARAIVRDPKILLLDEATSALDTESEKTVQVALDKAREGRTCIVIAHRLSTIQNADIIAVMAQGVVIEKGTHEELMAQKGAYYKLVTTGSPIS

hr 5-HT1A ag = target: T2, hr 5-HT1A ag (Homo sapiens, UniProt P08908); assay: receptor profile (Table S4); format: biochemical
T2 sequence (P08908 1-422): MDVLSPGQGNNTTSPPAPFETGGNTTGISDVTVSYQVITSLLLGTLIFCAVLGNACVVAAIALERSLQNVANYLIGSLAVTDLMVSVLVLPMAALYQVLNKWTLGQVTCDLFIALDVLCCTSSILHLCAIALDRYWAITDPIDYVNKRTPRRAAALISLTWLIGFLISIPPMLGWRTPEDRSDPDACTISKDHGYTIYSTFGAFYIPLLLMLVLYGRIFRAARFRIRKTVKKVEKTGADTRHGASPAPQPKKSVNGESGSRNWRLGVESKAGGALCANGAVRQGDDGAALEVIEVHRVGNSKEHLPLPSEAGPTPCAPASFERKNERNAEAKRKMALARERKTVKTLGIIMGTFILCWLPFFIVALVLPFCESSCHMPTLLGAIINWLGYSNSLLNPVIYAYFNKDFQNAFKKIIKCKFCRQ

ov COX-1 = target: T3, ov COX-1 (Ovis aries, UniProt P05979); assay: receptor profile (Table S4); format: biochemical, ovine
T3 sequence (P05979 25-600): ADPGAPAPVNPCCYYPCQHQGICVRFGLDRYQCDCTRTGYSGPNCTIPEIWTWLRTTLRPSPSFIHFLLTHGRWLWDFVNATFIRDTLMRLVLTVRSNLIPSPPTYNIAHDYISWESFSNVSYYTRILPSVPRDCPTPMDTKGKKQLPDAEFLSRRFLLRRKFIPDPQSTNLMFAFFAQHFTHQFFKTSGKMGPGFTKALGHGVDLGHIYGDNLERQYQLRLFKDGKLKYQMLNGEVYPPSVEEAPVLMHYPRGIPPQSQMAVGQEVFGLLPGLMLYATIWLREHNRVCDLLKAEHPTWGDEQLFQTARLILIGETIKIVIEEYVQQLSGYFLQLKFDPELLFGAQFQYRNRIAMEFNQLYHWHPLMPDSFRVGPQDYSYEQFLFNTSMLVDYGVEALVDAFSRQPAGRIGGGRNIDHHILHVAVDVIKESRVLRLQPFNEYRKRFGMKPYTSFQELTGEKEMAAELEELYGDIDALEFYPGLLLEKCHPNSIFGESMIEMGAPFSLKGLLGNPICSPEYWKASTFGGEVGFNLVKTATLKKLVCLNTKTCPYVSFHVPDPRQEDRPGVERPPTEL

[1] = mouse plasma protein binding; format: in vitro ADME
[2] = high-throughput solubility pH 6.8; format: physicochemical; settings: high-throughput assay format, read-out: HT sol. pH 6.8
[3] = metabolite profile in human hepatocytes; format: in vitro ADME; settings: 10 μM of 1 for 4 h, UV 250 nm, normalized to largest peak
hr OpD = hr OpD (Homo sapiens, UniProt P41143); assay: receptor profile (Table S4); format: binding
hr OpD, sequence (P41143 whole entry): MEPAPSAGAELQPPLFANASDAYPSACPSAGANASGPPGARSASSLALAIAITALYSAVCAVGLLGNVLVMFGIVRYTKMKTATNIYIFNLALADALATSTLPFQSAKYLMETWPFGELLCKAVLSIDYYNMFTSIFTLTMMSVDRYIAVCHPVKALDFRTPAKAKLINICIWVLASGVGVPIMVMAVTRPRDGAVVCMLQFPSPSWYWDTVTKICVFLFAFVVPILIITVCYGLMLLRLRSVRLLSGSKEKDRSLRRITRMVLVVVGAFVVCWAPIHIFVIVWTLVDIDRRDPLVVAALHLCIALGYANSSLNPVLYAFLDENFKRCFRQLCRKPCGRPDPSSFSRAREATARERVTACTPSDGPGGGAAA

hr 5-HT3 = target: T4, hr 5-HT3 (Homo sapiens, UniProt P46098); assay: receptor profile (Table S4); format: binding
T4 sequence (P46098 24-478): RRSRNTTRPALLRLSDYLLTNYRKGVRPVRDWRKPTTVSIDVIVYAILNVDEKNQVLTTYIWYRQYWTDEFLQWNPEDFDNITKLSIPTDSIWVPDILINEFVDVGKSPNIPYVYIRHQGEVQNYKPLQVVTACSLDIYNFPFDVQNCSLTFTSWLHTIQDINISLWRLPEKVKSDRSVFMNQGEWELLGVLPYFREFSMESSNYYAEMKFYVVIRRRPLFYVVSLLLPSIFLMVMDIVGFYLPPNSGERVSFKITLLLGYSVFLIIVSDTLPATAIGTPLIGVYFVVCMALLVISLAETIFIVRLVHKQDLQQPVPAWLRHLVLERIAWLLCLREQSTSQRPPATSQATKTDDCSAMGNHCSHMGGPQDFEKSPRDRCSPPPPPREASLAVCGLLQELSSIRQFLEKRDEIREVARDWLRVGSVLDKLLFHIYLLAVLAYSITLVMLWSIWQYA

in vivo = settings: male, Sprague-Dawley, rat
[4] = microsomal extraction ratio, 1 h incubation in microsomes

hr EGFR, sequence (P00533 25-1210): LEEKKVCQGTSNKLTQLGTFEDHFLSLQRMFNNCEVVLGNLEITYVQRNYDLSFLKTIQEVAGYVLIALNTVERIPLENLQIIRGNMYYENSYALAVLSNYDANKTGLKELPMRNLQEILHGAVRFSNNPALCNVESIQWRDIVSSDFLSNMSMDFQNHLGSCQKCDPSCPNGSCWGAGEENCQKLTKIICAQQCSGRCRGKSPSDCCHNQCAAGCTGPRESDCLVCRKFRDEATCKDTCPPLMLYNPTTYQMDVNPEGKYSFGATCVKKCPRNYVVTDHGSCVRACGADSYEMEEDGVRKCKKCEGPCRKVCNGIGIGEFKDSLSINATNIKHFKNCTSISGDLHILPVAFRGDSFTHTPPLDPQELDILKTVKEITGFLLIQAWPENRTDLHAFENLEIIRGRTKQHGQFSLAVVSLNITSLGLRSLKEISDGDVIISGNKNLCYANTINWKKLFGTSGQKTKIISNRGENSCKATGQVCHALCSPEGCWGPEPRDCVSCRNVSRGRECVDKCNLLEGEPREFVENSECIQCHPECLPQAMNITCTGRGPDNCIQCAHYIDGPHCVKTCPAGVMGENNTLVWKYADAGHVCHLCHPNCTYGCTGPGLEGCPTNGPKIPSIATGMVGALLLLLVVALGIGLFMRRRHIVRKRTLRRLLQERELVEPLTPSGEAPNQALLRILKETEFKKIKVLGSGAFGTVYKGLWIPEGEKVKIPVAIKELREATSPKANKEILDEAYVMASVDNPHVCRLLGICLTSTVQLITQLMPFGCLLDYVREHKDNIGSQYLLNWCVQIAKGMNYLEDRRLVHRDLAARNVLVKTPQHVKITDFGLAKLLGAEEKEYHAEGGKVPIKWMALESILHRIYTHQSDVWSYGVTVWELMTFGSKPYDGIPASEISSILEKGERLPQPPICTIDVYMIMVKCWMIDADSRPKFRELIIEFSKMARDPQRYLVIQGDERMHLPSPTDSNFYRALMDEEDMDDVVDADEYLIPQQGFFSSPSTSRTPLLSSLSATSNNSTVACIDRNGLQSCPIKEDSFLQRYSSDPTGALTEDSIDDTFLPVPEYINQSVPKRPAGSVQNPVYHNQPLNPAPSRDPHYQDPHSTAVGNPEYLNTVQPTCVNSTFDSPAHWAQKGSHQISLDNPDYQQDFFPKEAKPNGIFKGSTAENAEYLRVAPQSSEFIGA

**Q.** With `Cc1nc(C)c(C(=O)Nc2ccc(F)c(-c3nc4ncc(-c5ncccc5C)cn4n3)c2)o1` [compound 1, N-(4-Fluoro-3-(6-(3-methylpyridin-2-yl)-[1,2,4]triazolo[1,5-a]pyrimidin-2-yl)phenyl)-2,4-dimethyloxazole-5-carboxamide] as the compound, how does the EC50/IC50 (hr EGFR; hr EGFR) read?
**A.** > 30 µM

**Q.** What about the inhibition at 10 µM (hr EGFR; read-out: % inh/act @ 10 µM) of the same compound?
**A.** 16%

**Q.** And the inhibition at 30 µM (hr EGFR; read-out: % inh/act @ 30 µM)?
**A.** 17%

**Q.** What about the EC50/IC50 (hr CCKa; hr CCKa) of the same compound?
**A.** > 30 µM

**Q.** And the inhibition at 10 µM (hr CCKa; read-out: % inh/act @ 10 µM)?
**A.** 12%

**Q.** And the inhibition at 30 µM (hr CCKa; read-out: % inh/act @ 30 µM)?
**A.** 50%

**Q.** And the EC50/IC50 (hr D1 antag; hr D1 antag)?
**A.** > 30 µM

**Q.** And the inhibition at 10 µM (hr D1 antag; read-out: % inh/act @ 10 µM)?
**A.** -11%

**Q.** What about the inhibition at 30 µM (hr D1 antag; read-out: % inh/act @ 30 µM) of the same compound?
**A.** -5%

**Q.** And the inhibition at 10 µM (BSEP)?
**A.** 28%

**Q.** What about the inhibition at 30 µM (BSEP) of the same compound?
**A.** 45%

**Q.** And the EC50/IC50 (hr 5-HT1A ag; hr 5-HT1A ag)?
**A.** > 30 µM

**Q.** What about the inhibition at 10 µM (hr 5-HT1A ag; read-out: % inh/act @ 10 µM) of the same compound?
**A.** 1%

**Q.** What about the inhibition at 30 µM (hr 5-HT1A ag; read-out: % inh/act @ 30 µM) of the same compound?
**A.** 1%

**Q.** And the EC50/IC50 (ov COX-1; ov COX-1)?
**A.** > 30 µM

**Q.** And the inhibition at 10 µM (ov COX-1; read-out: % inh/act @ 10 µM)?
**A.** 16%

**Q.** And the inhibition at 30 µM (ov COX-1; read-out: % inh/act @ 30 µM)?
**A.** 14%

**Q.** And the fraction unbound [1]?
**A.** 0.056

**Q.** What about the solubility kinetic [2] of the same compound?
**A.** 17 µM (≈ 7.54 µg/mL)

**Q.** What about the abundance human [3] of the same compound?
**A.** +++ (+++ > 75%)

**Q.** What about the EC50/IC50 (hr OpD; hr OpD) of the same compound?
**A.** > 30 µM

**Q.** And the inhibition at 10 µM (hr OpD; read-out: % inh/act @ 10 µM)?
**A.** 22%

**Q.** What about the inhibition at 30 µM (hr OpD; read-out: % inh/act @ 30 µM) of the same compound?
**A.** 33%

**Q.** And the “% inh/act @ 10 µM” value (h PDE3)?
**A.** 6%

**Q.** And the “% inh/act @ 30 µM” value (h PDE3)?
**A.** 4%

**Q.** And the EC50/IC50 (hr 5-HT3; hr 5-HT3)?
**A.** > 30 µM

**Q.** And the inhibition at 10 µM (hr 5-HT3; read-out: % inh/act @ 10 µM)?
**A.** 22%

**Q.** What about the inhibition at 30 µM (hr 5-HT3; read-out: % inh/act @ 30 µM) of the same compound?
**A.** 19%

**Q.** And the clearance (in vivo; in vivo, iv, 3 mg/kg)?
**A.** 2.1 mL/min/kg

**Q.** What about the MRT (in vivo; plasma, iv, 3 mg/kg) of the same compound?
**A.** 4.3 h

**Q.** What about the Vd (in vivo; plasma, iv, 3 mg/kg) of the same compound?
**A.** 0.53 L/kg

**Q.** What about the half-life (in vivo; plasma, iv, 3 mg/kg) of the same compound?
**A.** 3.8 h

**Q.** And the bioavailability (in vivo; plasma, po, 10 mg/kg)?
**A.** 67%

**Q.** What about the ER human [4] of the same compound?
**A.** 0.27
